Structure (SMILES) | melting point
CC1(C)CC(=O)CC(C)(C)N1 | 36 °C
CCC(C)c1cc([N+](=O)[O-])cc([N+](=O)[O-])c1O (stereo unspecified) | 40 °C
CCC(C(=O)O)c1ccccc1C(=O)O (stereo unspecified) | 170 °C
CCOC(=O)c1c[nH]c2c(F)cccc2c1=O | 205 to 210 °C
COc1cc(C)c(S(=O)(=O)Cl)c(C)c1C | 58 °C
CC(=O)c1ccc(-c2ccc(C(C)=O)cc2)cc1 | 192 to 196 °C
CC(=O)C(Cl)C(C)=O | -15 °C
CCC1COC(=O)O1 (stereo unspecified) | -45 °C
O=C(Nc1ccccc1)OC1CCCCC(OC(=O)Nc2ccccc2)C1 (stereo unspecified) | 170 °C
CC12CCC(/C(=C/N(Cl)c3ccccc3)C1=O)C2(C)C (stereo unspecified) | 102 to 103 °C
CCCCCCCCC(Br)C(=O)O (stereo unspecified) | 4 °C
O=Cc1ccc(N2CCCC2)cn1 | 101 to 102 °C
Cc1ccc(C(=O)NCC(=O)O)cc1 | 162 to 166 °C
CC12CCCCC1CCC1C2CCC2(C)C1CCC2(O)C#Cc1ccccc1 (stereo unspecified) | 108 to 111 °C
NC(=O)c1cc(Cl)nc(Cl)c1 | 202 to 206 °C
CCOC(=O)c1nn(-c2ccc(C)cc2)c(C)c1C(=O)C1=NOC2C(=O)N(c3ccc(OC)cc3)C(=O)C12 (stereo unspecified) | 221 °C
N#CCCN(CCO)c1ccc(N=Nc2ccc([N+](=O)[O-])cc2Cl)cc1 | 157 °C
Cc1ccc(F)c(O)c1 | 32 °C
O=C(CBr)c1cccc(C(F)(F)F)c1 | 22 °C
Cc1cc(C(C)(C)C)cc(C)c1O | 82.4 °C
CC1=NN(c2ccccc2)C(=O)C1Cc1ccccc1O (stereo unspecified) | 140 °C
Cc1n[nH]c2c(=O)n(-c3ccccn3)c(C)nc12 | 222 to 224 °C
O=C(O)c1ccc(-c2ccccn2)s1 | 231 to 233 °C

Structure (SMILES) | melting point
O=C(Cl)c1cn(S(=O)(=O)c2ccccc2)c2ccccc12 | 144 °C
O=C(O)CCCCl | 16 °C
Cc1ccc(NO)cc1 | 96 °C
CC(C)C(=O)OCCCc1ccccc1 | -60 °C
O=C(O)c1ccc(Cl)cc1O | 210 °C
Brc1cc2c(cc1Br)Oc1ccccc1O2 | 158 °C
CCCC1COC(c2ccc(C#N)cc2)OC1 (stereo unspecified) | 57.5 °C
O=C1CC2OCC=C3CN4CCC56c7ccccc7N1C5C2C3CC46 (stereo unspecified) | 287 °C
Cn1nc(CCl)cc1-c1ccccc1 | 59 to 61 °C
COC1C=CC2=CCN3CCC4=C(CC(=O)OC4)C23C1 (stereo unspecified) | 99.5 °C
O=S(=O)(CCCl)c1ccccc1 | 54 °C
c1ccc(-c2ccc3ccccc3c2)cc1 | 104 °C
Cc1c(N/N=C(/C(=O)c2cccc3ccccc23)S(=O)(=O)c2ccccc2)c(=O)n(-c2ccccc2)n1C | 110 °C
Cc1ccc(F)c(C=O)c1Cl | 46 to 50 °C
CCOC(=O)c1c(C)[nH]c2cc3[nH]c(C)c(C(=O)OCC)c3cc12 | 342 °C
O=C(O)c1cnc(O)nc1-c1ccncc1 | 309 to 310 °C
O=S(=O)(Cl)c1c(Cl)ccc2nonc12 | 73 to 75 °C
CCOP(=O)(N=C1SCCS1)OCC | 41 °C
CC1=CC2OC3C(O)CC(C)(C34CO4)C2(CO)C(O)C1=O (stereo unspecified) | 152 °C
Nc1ccc2c(c1)CCCC2=O | 130 to 131 °C
Cn1c(=O)c(C2=Nc3ccccc3SC(c3cccs3)C2)c(O)c2ccccc21 (stereo unspecified) | 224 °C
COc1cc(Cl)nc(OC)n1 | 74 to 76 °C
Cc1cnc(C(=O)O)cn1 | 166 °C

Structure (SMILES) | melting point
Fc1cc2nsnc2cc1Cl | 78 °C
CN1C(c2cccnc2)N(C)[C@@H](c2ccccc2)[C@@H]1c1ccccc1 | 99 to 102 °C
N#C/C(=N/Nc1cc(Cl)c(Cl)cc1Cl)c1nc2ccccc2c(=O)[nH]1 | 149 °C
Cc1cc(C(F)(F)F)c2c(N)c(C#N)sc2n1 | 182 to 184 °C
O=C(O)C(Cc1ccccc1)C(=O)O | 121 °C
O=C(O)c1cncc(-c2cccs2)c1 | 261 °C
CC(C)(c1ccc(OCC2CO2)cc1)c1ccc(OCC2CO2)cc1 (stereo unspecified) | 10 °C
N#Cc1cc(Br)c(O)c(Br)c1 | 190 °C
NS(=O)(=O)c1cc(F)c(Br)cc1F | 165 °C
COc1ccc2[nH]cc(CCN(C(C)C)C(C)C)c2c1 | 181 °C
CC(=NO)c1ccccn1 | 117 to 119 °C
Cc1ccccc1S | 15 °C
O=C(O)c1csc(-c2cccnc2)n1 | 283 to 284 °C
Cc1ccc2c(c1)C(=O)c1cc(C)ccc1C2=O | 163 °C
CC12CCC(CC(Br)c3ccccc3)(OC1=O)C2(C)C (stereo unspecified) | 206 °C
Cc1onc(-c2c(Cl)cccc2Cl)c1C(N)=O | 166 to 168 °C
CC1=C(O)C(=O)C(C)O1 (stereo unspecified) | 80.5 °C
O=C(Cl)c1ccccc1Cl | -4 °C
NC(c1ccc(F)cc1)C(N)c1ccc(F)cc1 (stereo unspecified) | 100 to 104 °C
CCCC(NC(=O)C(C)N)C(=O)O (mixture of isomers) | 240 to 242 °C
N#C/C(=N\Nc1cc(Cl)ccc1Cl)c1nc2ccccc2[nH]1 | 300 to 302 °C
Cn1c(S)nnc1-c1ccc(Cl)cc1Cl | 175 to 177 °C
CC(NC(CCCNC(=N)N)C(=O)O)C(=O)O (single isomer, unassigned; (+)) | 283 to 284 °C

Structure (SMILES) | melting point
CCCCCCCCC(=O)c1ccc(/N=N/c2ccc(OCC)cc2)cc1 | 63 to 108 °C
O=C(Cl)c1sccc1Cl | 45 to 46 °C
CC1=C(C(=O)Nc2ccccc2)SCCO1 | 91.5 °C
CSc1ccc(N=C=S)cc1 | 50 °C
O=C(CCl)N1CCOCC1 | 37 °C
O=[N+]([O-])c1cc(S(=O)(=O)Cl)sc1Cl | 53 °C
CC(C)[C@H](O)C(=O)O | 65 to 68 °C
CCOC(=O)c1nn(-c2ccc(C)cc2)c(C)c1C(=O)C1=NOC2C(=O)N(c3cc(Cl)ccc3Cl)C(=O)C12 (stereo unspecified) | 225 °C
ClC1=C(Cl)C2(Cl)C3C4OC4(Cl)C(Cl)C3C1(Cl)C2(Cl)Cl (stereo unspecified) | 144 °C
Cn1ccc2cc(N)ccc21 | 102 to 103 °C
CC(=O)c1ccc(CO)cc1 | 54 °C
CSc1nc(=O)n2ccccc2n1 | 150 to 151 °C
Cc1nc(-c2cnccn2)sc1C(=O)CBr | 100 °C
CCOc1cc(OP(=S)(OC)OC)nc(CC)n1 | -3.35 °C
CCOC(=O)c1sc2sc(C#N)c(C)c2c1C | 155 to 157 °C
CCO/C=N/c1c(C(=O)OCC)sc2sc(C(=O)OCC)c(/N=C/OCC)c12 | 267 °C
CC(=O)Nc1ccc(-c2ccc(N(Nc3ccccc3)C(C)=O)cc2)cc1 | 233 °C
CC(C)(Oc1ccccc1)C(=O)O | 98.5 °C
NNC(=O)c1cc(Cl)cc(Cl)c1 | 206 °C
NCC(O)CC(=O)O (racemic) | 202 °C
CCCCOc1ccc(/C=N/NC(=O)C(=O)N/N=C/c2ccc(OCCCC)cc2)cc1 | 301 to 303 °C
O=C(O)CN1CCOCCOCCN(CC(=O)O)CCOCCOCC1 | 173 to 175 °C

From a melting point compilation (Tetko et al.)
